Laboratory results from patent US20110034472A1, “Novel Compounds for Treatment of Cancer and Disorders Associated With Angiogenesis Function” (UNIVERSITY OF SOUTHERN CALIFORNIA, priority 2004, published 2011).

Tested on: T24 bladder cancer cell lines
Assay: StaRT-PCR gene expression, SC23
Assay type: cell-based, human
Procedure: FIG. 21 illustrates RT-PCR gene expression analysis. Total RNA form T24 cells was isolated and cDNA was synthesized with 2.5 ug of total RNA. Standardized RT-PCR was performed with GENE system I gene expression kit (Gene Express Inc.). Each kit contains a mixture of the internal competitive templates and the corresponding primers.
Total RNA form T24 cells were isolated after 3h, Oh, 12h, 24h, and 48h exposure to SC23.
StaRT-PCR™ (Standardized Reverse Transcription Polymerase Chain Reaction). First described by Willey et al. ((2004) Methods Mol. Biol. 258:13-41), this technique uses standardized mixtures of competitive templates (CT) as internal standards in generating valid and reproducible numerical gene expression data for multiple genes. After the mRNA was converted to cDNA, the cDNA was mixed with a proprietary Standardized Mixture of Internal Standards™ (SMIS™, GeneExpress, Inc.). In the standard mixture, there is an internal standard CT for each gene to be measured as well as one for a reference gene. (i.e., β-actin, GAPDH). The amplicons produced by StaRT-PCR™ was then separated on capillary electrophoresis. The amount of internal standard CT or NT amplimer was determined by measuring each peak area. All data were then reported as number of molecules of mRNA for gene of interest per 10^6 molecules of reference gene (normalizer gene). Serial dilutions of the SMIS™ allow quantitative measurements over 7 log range of gene expression observed in cells from <10 to 10^7 molecules/10^6 molecules reference gene. Data presented in Table 8 are number of copies that have been normalized against 10^6 molecule of β-actin.

O=C(NNC(O)c1cc2ccccc2cc1O)c1cc2ccccc2cc1O (stereo not drawn) [SC23]
BCL2L1 expression (3 hours): 9449.42 molecules/10^6 β-actin | BCL2 expression (3 hours): 152.37 molecules/10^6 β-actin | CASP1 expression (3 hours): 68.36 molecules/10^6 β-actin | CCNA2 expression (3 hours): 126.84 molecules/10^6 β-actin | CCND3 expression (3 hours): 195.17 molecules/10^6 β-actin | CCNE1 expression (3 hours): 51.36 molecules/10^6 β-actin | CCNG1 expression (3 hours): 2956.79 molecules/10^6 β-actin | CDC2 expression (3 hours): 2365.6 molecules/10^6 β-actin | CDC25C expression (3 hours): 394.83 molecules/10^6 β-actin | CDK7 expression (3 hours): 1068.25 molecules/10^6 β-actin | CDK8 expression (3 hours): 412.64 molecules/10^6 β-actin | CDKN1A expression (3 hours): 11.42 molecules/10^6 β-actin | CDKN1B expression (3 hours): 72.37 molecules/10^6 β-actin | CDKN2A expression (3 hours): 415.63 molecules/10^6 β-actin | CDKN2C expression (3 hours): 458.41 molecules/10^6 β-actin | CYP1A2 expression (3 hours): 59.45 molecules/10^6 β-actin | DAP expression (3 hours): 9037.57 molecules/10^6 β-actin | E2F4 expression (3 hours): 7540.97 molecules/10^6 β-actin | E2F5 expression (3 hours): 268.09 molecules/10^6 β-actin | JUN expression (3 hours): 1846.15 molecules/10^6 β-actin | MAD expression (3 hours): 496.75 molecules/10^6 β-actin | MAP3K14 expression (3 hours): 55.57 molecules/10^6 β-actin | MYC expression (3 hours): 974.69 molecules/10^6 β-actin | NFKB1 expression (3 hours): 2694.24 molecules/10^6 β-actin | PCNA expression (3 hours): 8574.58 molecules/10^6 β-actin | PTGS2 expression (3 hours): 82.69 molecules/10^6 β-actin | RB1 expression (3 hours): 7076.29 molecules/10^6 β-actin | RBL2 expression (3 hours): 1287.91 molecules/10^6 β-actin | TGFBR2 expression (3 hours): 1420.02 molecules/10^6 β-actin | TGIF expression (3 hours): 3112.84 molecules/10^6 β-actin | TNFAIP1 expression (3 hours): 4737.75 molecules/10^6 β-actin | TNFRSF1A expression (3 hours): 15.56 molecules/10^6 β-actin | TNFSF10 expression (3 hours): 82.86 molecules/10^6 β-actin | TP53 expression (3 hours): 567.53 molecules/10^6 β-actin | TRAF4 expression (3 hours): 69.06 molecules/10^6 β-actin | BCL2L1 expression (6 hours): 10428.62 molecules/10^6 β-actin | BCL2 expression (6 hours): 121.2 molecules/10^6 β-actin | CASP1 expression (6 hours): 80.87 molecules/10^6 β-actin | CCNA2 expression (6 hours): 348.88 molecules/10^6 β-actin | CCND3 expression (6 hours): 175.1 molecules/10^6 β-actin | CCNE1 expression (6 hours): 33.08 molecules/10^6 β-actin | CCNG1 expression (6 hours): 6161.69 molecules/10^6 β-actin | CDC2 expression (6 hours): 1650.84 molecules/10^6 β-actin | CDC25C expression (6 hours): 606.06 molecules/10^6 β-actin | CDK7 expression (6 hours): 778.75 molecules/10^6 β-actin | CDK8 expression (6 hours): 354.76 molecules/10^6 β-actin | CDKN1A expression (6 hours): 27.06 molecules/10^6 β-actin | CDKN1B expression (6 hours): 390.76 molecules/10^6 β-actin | CDKN2A expression (6 hours): 5611.87 molecules/10^6 β-actin | CDKN2C expression (6 hours): 781.31 molecules/10^6 β-actin | CYP1A2 expression (6 hours): 10 molecules/10^6 β-actin | DAP expression (6 hours): 12572.87 molecules/10^6 β-actin | E2F4 expression (6 hours): 1285.78 molecules/10^6 β-actin | E2F5 expression (6 hours): 243.27 molecules/10^6 β-actin | JUN expression (6 hours): 4168.04 molecules/10^6 β-actin | MAD expression (6 hours): 763.05 molecules/10^6 β-actin | MAP3K14 expression (6 hours): 68.69 molecules/10^6 β-actin | MYC expression (6 hours): 2650.11 molecules/10^6 β-actin | NFKB1 expression (6 hours): 3274.07 molecules/10^6 β-actin | PCNA expression (6 hours): 6433.1 molecules/10^6 β-actin | PTGS2 expression (6 hours): 157.43 molecules/10^6 β-actin | RB1 expression (6 hours): 5973.3 molecules/10^6 β-actin | RBL2 expression (6 hours): 2112.09 molecules/10^6 β-actin | TGFBR2 expression (6 hours): 2582.67 molecules/10^6 β-actin | TGIF expression (6 hours): 8002.87 molecules/10^6 β-actin | TNFAIP1 expression (6 hours): 7127.73 molecules/10^6 β-actin | TNFRSF1A expression (6 hours): 20.58 molecules/10^6 β-actin | TNFSF10 expression (6 hours): 532.07 molecules/10^6 β-actin | TP53 expression (6 hours): 1005.63 molecules/10^6 β-actin | TRAF4 expression (6 hours): 91.86 molecules/10^6 β-actin | BCL2L1 expression (12 hours): 23160.22 molecules/10^6 β-actin | BCL2 expression (12 hours): 122.24 molecules/10^6 β-actin | CASP1 expression (12 hours): 113.28 molecules/10^6 β-actin | CCNA2 expression (12 hours): 211.27 molecules/10^6 β-actin | CCND3 expression (12 hours): 137.33 molecules/10^6 β-actin | CCNE1 expression (12 hours): 48.10 molecules/10^6 β-actin | CCNG1 expression (12 hours): 9794.14 molecules/10^6 β-actin | CDC2 expression (12 hours): 1566.64 molecules/10^6 β-actin | CDC25C expression (12 hours): 779.22 molecules/10^6 β-actin | CDK7 expression (12 hours): 2551.62 molecules/10^6 β-actin | CDK8 expression (12 hours): 605.61 molecules/10^6 β-actin | CDKN1A expression (12 hours): 129.69 molecules/10^6 β-actin | CDKN1B expression (12 hours): 310.81 molecules/10^6 β-actin | CDKN2A expression (12 hours): 403.27 molecules/10^6 β-actin | CDKN2C expression (12 hours): 770.42 molecules/10^6 β-actin | CYP1A2 expression (12 hours): 69 molecules/10^6 β-actin | DAP expression (12 hours): 38087.74 molecules/10^6 β-actin
